These are literature values, as cited in patent US11260055B2, “Oral pharmaceutical composition of lurasidone and preparation thereof” (PIRAMAL PHARMA LIMITED, priority 2017, dated 2022).

The conditions of this series: in water.

With `O=C1[C@@H]2[C@H]3CC[C@H](C3)[C@@H]2C(=O)N1C[C@@H]1CCCC[C@H]1CN1CCN(c2nsc3ccccc23)CC1` [Lurasidone], the Solubility result was “poor water solubility”.
